pIC50: −log10 of the molar value.
What follows are compounds tested against T1, human CGT (Homo sapiens, UniProt Q16880) (assay: Assay 1: CGT Enzymatic Assay (RapidFire/MS/MS, 0.01% Tween 80)). Conditions: Table 1, Compounds of Formula (I) and Formula (II); CGT enzymatic assay, C6-NBD-dihydro-galactosylceramide readout; read-out: IC50.
T1 sequence (Q16880 21-541): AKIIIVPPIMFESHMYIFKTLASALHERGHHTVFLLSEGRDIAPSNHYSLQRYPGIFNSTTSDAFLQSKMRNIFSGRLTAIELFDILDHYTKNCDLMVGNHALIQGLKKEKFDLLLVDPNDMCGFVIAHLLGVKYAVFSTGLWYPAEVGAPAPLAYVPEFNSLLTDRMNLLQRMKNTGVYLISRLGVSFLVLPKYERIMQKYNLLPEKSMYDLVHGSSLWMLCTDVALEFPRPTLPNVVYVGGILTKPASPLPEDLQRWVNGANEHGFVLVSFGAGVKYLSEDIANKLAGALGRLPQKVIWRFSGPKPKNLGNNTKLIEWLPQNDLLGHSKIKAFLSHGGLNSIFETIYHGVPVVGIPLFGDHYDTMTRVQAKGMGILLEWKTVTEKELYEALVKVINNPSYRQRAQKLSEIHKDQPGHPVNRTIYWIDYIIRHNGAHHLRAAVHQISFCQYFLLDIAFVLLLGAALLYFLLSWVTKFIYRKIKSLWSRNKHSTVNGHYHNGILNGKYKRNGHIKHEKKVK
Assay type: biochemical
`CC(F)(F)c1cccc(C2(O)N(c3ccc(Cl)cc3)C(=O)N(c3ccc(Cl)cc3)C23COC3)c1` (stereo not shown) [Compound 271, 5,7-bis(4-chlorophenyl)-8-(3-(1,1-difluoroethyl)phenyl)-8-hydroxy-2-oxa-5,7-diazaspiro[3.4]octan-6-one] showed a pIC50 greater than 6.00. For `O=C1N(c2ccc(Cl)cc2)C2(COC2)C(O)(c2cccc(OC(F)F)c2)N1c1ccc(Cl)cc1` (stereo not shown) [Compound 272, 5,7-bis(4-chlorophenyl)-8-(3-(difluoromethoxy)phenyl)-8-hydroxy-2-oxa-5,7-diazaspiro[3.4]octan-6-one], the pIC50 was greater than 6.00. For `CC1(C)N(c2ccc(Cl)cc2)C(=O)N(c2ccc(C#N)cc2)C1(O)c1cccc(OC(F)(F)F)c1` (stereo not shown) [Compound 273, 4-(3-(4-chlorophenyl)-5-hydroxy-4,4-dimethyl-2-oxo-5-(3-(trifluoromethoxy)phenyl)imidazolidin-1-yl)benzonitrile], the pIC50 was greater than 6.00. Work on `N#Cc1ccc(N2C(=O)N(c3ccc(Cl)cc3)C3(COC3)C2(O)c2cccc(OC(F)(F)F)c2)cc1` (stereo not shown) [Compound 274, 4-(5-(4-chlorophenyl)-8-hydroxy-6-oxo-8-(3-(trifluoromethoxy)phenyl)-2-oxa-5,7-diazaspiro[3.4]octan-7-yl)benzonitrile] yielded a pIC50 greater than 6.00. In the case of `N#Cc1ccc(N2C(=O)N(c3ccc(C#N)cc3)C(O)(c3cccc(OC(F)(F)F)c3)C23COC3)cc1` (stereo not shown) [Compound 275, 4,4′-(8-hydroxy-6-oxo-8-(3-(trifluoromethoxy)phenyl)-2-oxa-5,7-diazaspiro[3.4]octane-5,7-diyl)dibenzonitrile], the pIC50 was greater than 6.00. `N#Cc1ccc(N2C(=O)N(c3ccc(Cl)cc3)C(O)(c3cccc(OC(F)(F)F)c3)C23COC3)cc1` (stereo not shown) [Compound 276, 4-(7-(4-chlorophenyl)-8-hydroxy-6-oxo-8-(3-(trifluoromethoxy)phenyl)-2-oxa-5,7-diazaspiro[3.4]octan-5-yl)benzonitrile] was tested, and the pIC50 was greater than 6.00. `Cc1ccc(N2C(=O)N(c3ccc(C#N)cc3)C3(COC3)C2(O)c2cccc(OC(F)(F)F)c2)cc1` (stereo not shown) [Compound 277, 4-(8-hydroxy-6-oxo-7-(p-tolyl)-8-(3-(trifluoromethoxy)phenyl)-2-oxa-5,7-diazaspiro[3.4]octan-5-yl)benzonitrile] showed a pIC50 greater than 6.00. For `Cc1ccc(N2C(=O)N(c3ccc(C#N)cc3)C3(COC3)C2(O)c2cccc(C#N)c2)cc1` (stereo not shown) [Compound 278, 3-(5-(4-cyanophenyl)-8-hydroxy-6-oxo-7-(p-tolyl)-2-oxa-5,7-diazaspiro[3.4]octan-8-yl)benzonitrile], the pIC50 was greater than 6.00. `Cc1ccc(N2C(=O)N(c3ccc(C#N)cc3)C3(CCC3)C2(O)c2cccc(OC(F)(F)F)c2)cc1` (stereo not shown) [Compound 279, 4-(8-hydroxy-6-oxo-7-(p-tolyl)-8-(3-(trifluoromethoxy)phenyl)-5,7-diazaspiro[3.4]octan-5-yl)benzonitrile] gave a pIC50 greater than 6.00. `Cc1ccc(N2C(=O)N(c3ccc(C#N)cc3)C3(CCC3)C2(O)c2cccc(C#N)c2)cc1` (stereo not shown) [Compound 280, 3-(5-(4-cyanophenyl)-8-hydroxy-6-oxo-7-(p-tolyl)-5,7-diazaspiro[3.4]octan-8-yl)benzonitrile] gave a pIC50 greater than 6.00. `Cc1ccc(N2C(=O)N(c3ccc(C#N)cc3)C(O)(c3cccc(OC(F)(F)F)c3)C23CCC3)cc1` (stereo not shown) [Compound 281, 4-(8-hydroxy-6-oxo-5-(p-tolyl)-8-(3-(trifluoromethoxy)phenyl)-5,7-diazaspiro[3.4]octan-7-yl)benzonitrile] gave a pIC50 greater than 6.00. In the case of `Cc1ccc(N2C(=O)N(c3ccc(C#N)cc3)C(O)(c3cccc(C#N)c3)C23CCC3)cc1` (stereo not shown) [Compound 282, 3-(7-(4-cyanophenyl)-8-hydroxy-6-oxo-5-(p-tolyl)-5,7-diazaspiro[3.4]octan-8-yl)benzonitrile], the pIC50 was greater than 6.00. `Cc1ccc(N2C(=O)N(c3ccc(Cl)cc3)C(O)(c3cccc(C#N)c3)C23COC3)cc1` (stereo not shown) [Compound 283, 3-(7-(4-chlorophenyl)-8-hydroxy-6-oxo-5-(p-tolyl)-2-oxa-5,7-diazaspiro[3.4]octan-8-yl)benzonitrile] showed a pIC50 greater than 6.00. In the case of `Cc1ccc(N2C(=O)N(c3ccc(C)cc3)C(O)(c3cccc(OC(F)(F)F)c3)C23COC3)cc1` (stereo not shown) [Compound 284, 8-hydroxy-5,7-di-p-tolyl-8-(3-(trifluoromethoxy)phenyl)-2-oxa-5,7-diazaspiro[3.4]octan-6-one], the pIC50 was greater than 6.00. `Cc1ccc(N2C(=O)N(c3ccc(C)cc3)C(O)(c3cccc(C(F)F)c3)C23COC3)cc1` (stereo not shown) [Compound 285, 8-(3-(difluoromethyl)phenyl)-8-hydroxy-5,7-di-p-tolyl-2-oxa-5,7-diazaspiro[3.4]octan-6-one] gave a pIC50 greater than 6.00. For `Cc1ccc(N2C(=O)N(c3ccc(C)cc3)C(O)(c3cccc(C(C)(F)F)c3)C23COC3)cc1` (stereo not shown) [Compound 286, 8-(3-(1,1-difluoroethyl)phenyl)-8-hydroxy-5,7-di-p-tolyl-2-oxa-5,7-diazaspiro[3.4]octan-6-one], the pIC50 was greater than 6.00. For `Cc1ccc(N2C(=O)N(c3ccc(C)cc3)C(O)(c3cccc(C#N)c3)C23COC3)cc1` (stereo not shown) [Compound 287, 3-(8-hydroxy-6-oxo-5,7-di-p-tolyl-2-oxa-5,7-diazaspiro[3.4]octan-8-yl)benzonitrile], the pIC50 was greater than 6.00. `N#Cc1ccc(N2C(=O)N(c3ccc(Cl)cc3)C3(CCC3)C2(O)c2cccc(OC(F)(F)F)c2)cc1` (stereo not shown) [Compound 288, 4-(5-(4-chlorophenyl)-8-hydroxy-6-oxo-8-(3-(trifluoromethoxy)phenyl)-5,7-diazaspiro[3.4]octan-7-yl)benzonitrile] gave a pIC50 greater than 6.00. In the case of `N#Cc1ccc(N2C(=O)N(c3ccc(Cl)cc3)C3(CCC3)C2(O)c2cccc(C#N)c2)cc1` (stereo not shown) [Compound 289, 3-(5-(4-chlorophenyl)-7-(4-cyanophenyl)-8-hydroxy-6-oxo-5,7-diazaspiro[3.4]octan-8-yl)benzonitrile], the pIC50 was greater than 6.00. For `Cc1ccc(N2C(=O)N(c3ccc(C)cc3)C(O)(c3cccc(OC(F)F)c3)C23COC3)cc1` (stereo not shown) [Compound 290, 8-(3-(difluoromethoxy)phenyl)-8-hydroxy-5,7-di-p-tolyl-2-oxa-5,7-diazaspiro[3.4]octan-6-one], the pIC50 was greater than 6.00. `CCCC1(C)N(c2ccc(Cl)cc2)C(=O)N(c2ccc(Cl)cc2)C1(O)c1cccc(C#N)c1` (stereo not shown) [Compound 291, 3-(1,3-bis(4-chlorophenyl)-4-hydroxy-5-methyl-2-oxo-5-propylimidazolidin-4-yl)benzonitrile] was tested, and the pIC50 was greater than 6.00. Compound `N#Cc1ccc(N2C(=O)N(c3ccc(Br)cc3)C(O)(c3cccc(OC(F)(F)F)c3)C23CCC3)cc1` (stereo not shown) [Compound 292, 4-(7-(4-bromophenyl)-8-hydroxy-6-oxo-8-(3-(trifluoromethoxy)phenyl)-5,7-diazaspiro[3.4]octan-5-yl)benzonitrile] has a pIC50 greater than 6.00. Work on `N#Cc1ccc(N2C(=O)N(c3ccc(C#N)cc3)C(O)(c3cccc(OC(F)(F)F)c3)C23CCC3)cc1` (stereo not shown) [Compound 293, 4,4′-(8-hydroxy-6-oxo-8-(3-(trifluoromethoxy)phenyl)-5,7-diazaspiro[3.4]octane-5,7-diyl)dibenzonitrile] yielded a pIC50 greater than 6.00. For `N#Cc1ccc(N2C(=O)N(c3ccc(C#N)cc3)C(O)(c3cccc(C#N)c3)C23CCC3)cc1` (stereo not shown) [Compound 294, 4,4′-(8-(3-cyanophenyl)-8-hydroxy-6-oxo-5,7-diazaspiro[3.4]octane-5,7-diyl)dibenzonitrile], the pIC50 was greater than 6.00. With `N#Cc1ccc(N2C(=O)N(c3ccc(Br)cc3)C(O)(c3cccc(C#N)c3)C23CCC3)cc1` (stereo not shown) [Compound 295, 3-(7-(4-bromophenyl)-5-(4-cyanophenyl)-8-hydroxy-6-oxo-5,7-diazaspiro[3.4]octan-8-yl)benzonitrile] the pIC50 was greater than 6.00. With `COC[C@@]1(C)N(c2ccc(Cl)cc2)C(=O)N(c2ccc(Cl)cc2)[C@@]1(O)c1cccc(OC(F)(F)F)c1` [Compound 296-1, (4R,5R)-1,3-bis(4-chlorophenyl)-4-hydroxy-5-(methoxymethyl)-5-methyl-4-(3-(trifluoromethoxy)phenyl)imidazolidin-2-one] the pIC50 was 5.00 to 6.00. Compound `COC[C@]1(C)N(c2ccc(Cl)cc2)C(=O)N(c2ccc(Cl)cc2)[C@]1(O)c1cccc(OC(F)(F)F)c1` [Compound 296-2, (4S,5S)-1,3-bis(4-chlorophenyl)-4-hydroxy-5-(methoxymethyl)-5-methyl-4-(3-(trifluoromethoxy)phenyl)imidazolidin-2-one] has a pIC50 greater than 6.00. `COC[C@]1(C)N(c2ccc(Cl)cc2)C(=O)N(c2ccc(Cl)cc2)[C@@]1(O)c1cccc(OC(F)(F)F)c1` [Compound 296-3, (4R,5S)-1,3-bis(4-chlorophenyl)-4-hydroxy-5-(methoxymethyl)-5-methyl-4-(3-(trifluoromethoxy)phenyl)imidazolidin-2-one] was tested, and the pIC50 was 5.00 to 6.00. With `COC[C@@]1(C)N(c2ccc(Cl)cc2)C(=O)N(c2ccc(Cl)cc2)[C@]1(O)c1cccc(OC(F)(F)F)c1` [Compound 296-4, (4S,5R)-1,3-bis(4-chlorophenyl)-4-hydroxy-5-(methoxymethyl)-5-methyl-4-(3-(trifluoromethoxy)phenyl)imidazolidin-2-one] the pIC50 was greater than 6.00. In the case of `COCC1(C)N(c2ccc(Cl)cc2)C(=O)N(c2ccc(Cl)cc2)C1(O)c1cccc(C#N)c1` (stereo not shown) [Compound 297, 3-(1,3-bis(4-chlorophenyl)-4-hydroxy-5-(methoxymethyl)-5-methyl-2-oxoimidazolidin-4-yl)benzonitrile], the pIC50 was greater than 6.00. Compound `Cc1ccc(N2C(=O)N(c3ccc(Cl)cc3)C3(COC3)C2(O)c2cccc(C#N)c2)cc1` (stereo not shown) [Compound 298, 3-(5-(4-chlorophenyl)-8-hydroxy-6-oxo-7-(p-tolyl)-2-oxa-5,7-diazaspiro[3.4]octan-8-yl)benzonitrile] has a pIC50 greater than 6.00.
